Reference: US20100166727A1, “S-Adenosylmethionine And Methylthioadensosine In Chemoprevention And Treatment Of Colon Polyps And Cancer” (UNIVERSITY OF SOUTHERN CALIFORNIA, priority 2007, published 2010)
“Also recorded” adds a separate entry of the source.

Tests used:
colon cancer cells = details: by lowering c-FLIP expression; cited from earlier work
MAT2A [1] = assay: MAT2A mRNA levels by real-time PCR in HT-29 cells; format: cell-based, human
Protocol: (§1) HT-29 and RKO cells were obtained from the Cell Culture Core of the USC Liver Disease Research Center and grown according to instructions provided by the American Type Culture Collection (ATCC, Rockville, Md.). Prior to treatment with growth factors, SAMe or MTA, medium was changed to 0.1% FBS overnight.
RNA interference (RNAi) experiments were performed using Lipofectamine RNAiMax (Invitrogen) according to the manufacturer's instructions. Small interfering RNA (siRNA) oligonucleotides for MAT2A and scrambled siRNA were synthesized by the USC Norris Comprehensive Cancer Center Microchemical Core Laboratory, and annealed to form duplexes. Stealth RNAi for MAT2A and Stealth RNAi negative control duplexes were synthesized by Invitrogen (Carlsbad, Calif.). The following siRNA sequences were used: si-MAT2A #1, 5′-[…]-3′ (sense) and 5′-[…]-3′ (antisense); si-control with scrambled sequence (negative control siRNA having no perfect matches to known human genes), 5′-[…]dTdT-3′ (sense) and 5% […]dTdT-3′ (antisense); stealth RNAi-MAT2A #5, 5′-[…]-3′ (sense) and 5′-[…]-3′ (antisense). […]
(§2) Total RNA was isolated by the EZgeno total RNA isolation kit (Genemega, San Giego, Calif.), and subjected to reverse transcription (RT) by using M-MLV Reverse transcriptase (Invitrogen). 2 μl of RT product was subjected to quantitative real-time PCR analysis. The primers and TaqMan probes for MAT2A, MAT2β and Universal PCR Master Mix were purchased from ABI (Foster City, Calif.). Hypoxanthine phosphoribosyl-transferase 1 (HPRT1) and ubiquitin C (UBC) were used as housekeeping genes (48). The thermal profile consisted of 1 cycle at 95° C. for 15 minutes followed by 40 cycles at 95° C. for 15 seconds and at 60° C. for 1 minute. The expression of MAT2A and MAT2β was checked by normalizing the Ct of MAT2A and MAT2β to that of the control housekeeping gene (HPRT1 or UBC) (49). The delta Ct obtained was used to find the relative expression of MAT genes according to the formula: Relative expression=2·^ΔCt, where ΔCt=ΔCt of MAT genes in colon cancer or treated cells—ΔCt of MAT genes in normal colon or control cells.

MAT2A [2] = assay: MAT2A expression in NCM460 cells; format: cell-based, human; details: 5 mM SAMe or 1 mM MTA, 6 hrs
Protocol: as §2
NCM460 cell line was originally established in 1996 as the first non-malignant colonic epithelial cell line derived from the transverse colon (43). When first developed, cells formed both monolayer and in suspension, express villin and cytokeratin staining (43). […] The NCM460 cells in monolayer have features of transverse colon crypt cells (69). […]

HT-29 cells [3] = assay: Cellular SAMe and MTA levels in HT-29 cells; format: cell-based, human
Protocol: as §1
(§3) Cellular SAMe and MTA levels were measured (51) and polyamine levels were determined (52).

[4] = test system: ornithine decarboxylase (ODC); assay: ODC expression by real-time PCR in HT-29 cells; format: cell-based, human
SPD syn = SPD syn expression by real-time PCR in HT-29 cells; format: cell-based, human
[5] = test system: spermine synthase (SPM syn); assay: SPM syn expression by real-time PCR in HT-29 cells; format: cell-based, human
[6] = Stability of SAMe and MTA in culture medium without cells and in water; format: physicochemical; details: culture medium at 37° C., MTA 1 mM
Protocol: FIG. 12. […] SAMe (A) and MTA (B) levels were measured in culture medium without cells with starting SAMe concentrations ranging from 1 to 5 mM and MTA concentration at 1 mM.
To test whether the mitogens-induce increase in. MAT2A is to provide increased SAMe necessary for polyamine synthesis in growing cells, SAMe and polyamine levels were measured following treatment of HT-29 cells with mitogens.

NCM460 cells = assay: Toxicity and apoptosis in NCM460 normal colonic epithelial cells; format: cell-based, human
Protocol: In these experiments the total treatment duration was limited to 16 hrs to avoid the apoptotic effect. […] Apoptosis was measured by Hoechst staining or Annexin V and propidium iodide staining on flow cytometry.

c-FLIP = c-FLIP mRNA level by real-time PCR in HT-29 cells; format: cell-based, human; details: SAMe 2 mM, MTA 1 mM, 6 hrs, mean±SE
Bcl-xL = Bcl-xL mRNA level in HT-29 cells; format: cell-based, human; details: MTA 1 mM, 6 hrs
Protocol: SAMe and MTA induce apoptosis in liver cancer cells by the mitochondrial pathway (14). […] In liver cancer cells, SAMe and MTA induced selectively expression of Bcl-xs, a pro-apoptotic protein (67). We examined whether the same occurs in HT-29 cells. After 6 hrs of MTA (1 mM) treatment, Bcl-xL mRNA level fell by 53% (47±4% of control, results are mean±SE from 4 experiments, p<0.0005). […] This makes these agents particularly attractive in targeting colon cancer cells.

MAT2A [7] = assay: Intestinal MAT2A expression in mice given SAMe or MTA in drinking water; format: in vivo
Protocol: FIG. 30. Effects of oral SAMe and MTA on colonic mRNA levels of MAT2A, MAT2 β, and cFLIPL. Mice were fed SAMe (150 to 450 mg/kg/d) or MTA (75 or 150 mg/kg/d) in drinking water for 6 days. Colonic mucosa was scrapped off and gene expression measured by real-time PCR.
Three-month old male C57/B6 mice were fed ad libitum a standard diet (Harland Tekiad irradiated mouse diet 7912, Madison, Wis.), caged individually and had free access to water supplemented with SAMe ([…]), MTA (75 mg/kg/d), phosphate buffered saline (vehicle for SAMe) or DMSO (0.2%, vehicle for MTA) for 6 days. SAMe and MTA were made fresh daily. The amount of water intake, body weight, and animal behavior were closely monitored. After 6 days, animals were sacrificed, intestine was cut open along the longitudinal axis, and mucosa was stripped from the intestine (46). Mucosa was weighed and a portion processed for SAMe measurement as described below, the rest snap frozen for subsequent RNA extraction.
as §2

MAT2β [8] = assay: Colonic MAT2β mRNA in mice fed SAMe or MTA; format: in vivo; details: 75 mg/kg/d MTA, 6 days
Protocol: FIG. 30. Effects of oral SAMe and MTA on colonic mRNA levels of MAT2A, MAT2 β, and […]. Mice were fed SAMe (150 to 450 mg/kg/d) or MTA (75 or 150 mg/kg/d) in drinking water for 6 days. Colonic mucosa was scrapped off and gene expression measured by real-time PCR.

[9] = Tolerability of oral SAMe and MTA in mice; format: in vivo; details: oral in drinking water, 6 days; weight gain and water consumption similar to controls
Source text: SAMe and MTA were made fresh daily. The amount of water intake, body weight, and animal behavior were closely monitored. After 6 days, animals were sacrificed, intestine was cut open along the longitudinal axis, and mucosa was stripped from the intestine (46). Mucosa was weighed and a portion processed for SAMe measurement as described below, the rest snap frozen for subsequent RNA extraction.

MAT2A [10] = assay: MAT2A mRNA levels by real-time PCR in RKO cells; format: cell-based, human; details: RKO cells, growth factor 100 ng/ml
Protocol: as §1
RNA interference (RNAi) experiments were performed using Lipofectamine RNAiMax (Invitrogen) according to the manufacturer's instructions. Small interfering RNA (siRNA) oligonucleotides for MAT2A and scrambled siRNA were synthesized by the USC Norris Comprehensive Cancer Center Microchemical Core Laboratory, and annealed to form duplexes. Stealth RNAi for MAT2A and Stealth RNAi negative control duplexes were synthesized by Invitrogen (Carlsbad, Calif.). The following siRNA sequences were used: si-MAT2A #1, 5′-[…]-3′ (sense) and 5′-[…]-3′ (antisense); si-control with scrambled sequence (negative control siRNA having no perfect matches to known human genes), 5′-[…]dTdT-3′ (sense) and 5% […]dTdT-3′ (antisense); stealth RNAi-MAT2A #5, 5′-[…]-3′ (sense) and 5′-[…]-3′ (antisense). Transfection was allowed to proceed 72 hours before collection for different assays.
as §2

MAT2β [11] = assay: MAT2β mRNA levels by real-time PCR in HT-29 cells; format: cell-based, human; details: HT29 cells, growth factor 100 ng/ml
Protocol: as §1, §2

MAT2β [12] = assay: MAT2β (total, V1, V2) mRNA levels by real-time PCR in RKO cells; format: cell-based, human; details: growth factor 100 ng/ml
Protocol: as §1
as §2, with “The delta Ct obtained was used to find the relative expression of MAT genes according to the formula: Relative expression=2·^ΔCt, where ΔCt=ΔCt of MAT genes in colon cancer or treated cells—ΔCt of MAT genes in normal colon or control cells.” left out
To better understand functional differences between the two MAT2β variants, we created vectors expressing either V1 or V2 using the mammalian expression vector pcDNA3.1D/V5-His/TOPO vector (Invitrogen). […] Cell growth was measured by 3H-thymidine incorporation into DNA. […]

HT-29 cells [13] = assay: Polyamine levels in HT-29 cells; format: cell-based, human; details: 6 hrs, mitogen 100 ng/ml
Protocol: as §1, §3

[14] = 75 mg/kg/d in drinking water, six days

## O=c1[nH]cc(F)c(=O)[nH]1 [5-FU, 5-fluorouracil]
Colon cancer cells
  TRAIL-induced apoptosis: sensitize colon cancer cells to TRAIL-induced apoptosis

## CSC[C@H]1O[C@@H](n2cnc3c(N)ncnc32)[C@H](O)[C@@H]1O [MTA, methylthioadenosine]
MAT2A [1]; SAMe 5 mM or MTA 1 mM, 6 hrs, HT29 cells
  reduction of baseline expression of MAT2A: 60%
MAT2A [2]
  reduction of MAT2A expression: 40%
HT-29 cells [3]; 6 hrs, MTA 1 mM
  MTA level: 0.652 ± 0.123 nmol/mg protein
  SAMe level: 0.81 ± 0.09 nmol/mg protein
HT-29 cells [3]; 16 hrs, MTA 1 mM
  MTA level: 0.689 ± 0.108 nmol/mg protein
  SAMe level: 0.54 ± 0.01 nmol/mg protein
[4]; MTA treatment for 6 hrs
  lowering of ornithine decarboxylase (ODC) mRNA level: 30%
SPD syn; MTA treatment for 6 hrs
  lowering of spermidine synthase mRNA level: 30%
[5]; MTA treatment for 6 hrs
  lowering of spermine synthase mRNA level: 30%
[6]
  stability: highly stable; also recorded: no change in 24 hrs
NCM460 cells; SAMe 0.2 to 2 mM, MTA 0.2 to 5 mM
  toxicity in NCM460 cells: did not cause any toxicity
NCM460 cells; SAMe up to 2 mM, MTA up to 5 mM
  apoptosis in NCM460 cells: do not cause apoptosis
c-FLIP
  c-FLIP mRNA level: 47±4 % of control
Bcl-xL
  fall of Bcl-xL mRNA level: 53%
Bcl-xL; mean±SE from 4 experiments
  Bcl-xL mRNA level: 47±4 % of control
MAT2A [7]; [14]
  MAT2A expression, colon: 87 ± 20 % of control MAT2A mRNA levels
  MAT2A expression, proximal small intestine: 82 ± 2 % of control MAT2A mRNA levels
MAT2A [7]; MTA 75 mg/kg/d, 6 days
  inhibition in colonic MAT2A mRNA level: 85%
MAT2A [7]; SAMe 150 mg/kg/d, MTA 75 mg/kg/d, six days
  decrease of MAT2A expression in proximal small intestine: 20%
MAT2β [8]
  inhibition of MAT2β expression: 60%
[9]
  tolerability / toxicity: well tolerated; also recorded: no apparent toxicity

## Leptin: growth factor implicated in colon cancer growth and invasion
MAT2A [1]; HT-29 cells, growth factor 100 ng/ml
  MAT2A mRNA levels after growth factor: near doubling
MAT2A [10]
  MAT2A mRNA levels after growth factor: near doubling
MAT2β [11]
  MAT2β expression after growth factor: not affected
MAT2β [12]
  MAT2β expression after growth factor: not affected
HT-29 cells [3]; 6 hrs, mitogen 100 ng/ml
  MTA level: 0.058 ± 0.010 nmol/mg protein
  SAMe level: 0.48 ± 0.04 nmol/mg protein
HT-29 cells [3]; 16 hrs, mitogen 100 ng/ml
  MTA level: 0.064 ± 0.015 nmol/mg protein
  SAMe level: 0.63 ± 0.02 nmol/mg protein
HT-29 cells [13]
  Putrescine: 0.27 ± 0.02 nmol/mg protein
  Spermidine: 2.62 ± 0.02 nmol/mg protein
  Spermine: 14.62 ± 2.70 nmol/mg protein
[4]; 6 hrs, mitogen 100 ng/ml
  ODC expression: 1.6 ± 0.09 fold of control
SPD syn; 6 hrs, mitogen 100 ng/ml
  SPD syn expression: 2.3 ± 0.25 fold of control
[5]; 6 hrs, mitogen 100 ng/ml
  SPM syn expression: 1.0 ± 0.05 fold of control
